Results reported in PubChem BioAssay AID192 (DTP/NCI, 2004).
Where “and” joins values, the source holds several entries; their conditions need not be identical. Identical values can stand only once. Toxic doses and inconclusive results are not listed.

System: BDF1 mice, B16 melanoma ip, median survival T/C
Assay: NCI In Vivo Anticancer Drug Screen. Data for tumor model B16 Melanoma (intraperitoneal) in B6D2F1 (BDF1) mice
Settings: endpoint: median survival time, higher = longer survival
Procedure, shortened: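 Transplantable tumor model; survival or tumor size measured; reported as T/C, treated over vehicle control.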

[1] = dose: 50.0 mg/kg/injection, schedule: Q01DX009 (ip), vehicle: saline
[2] = dose: 100.0 mg/kg/injection, schedule: Q01DX009 (ip), vehicle: saline
[3] = dose: 200.0 mg/kg/injection, schedule: Q01DX009 (ip), vehicle: saline
[4] = dose: 25.0 mg/kg/injection, schedule: Q01DX009 (ip), vehicle: saline with Tween-80
[5] = dose: 50.0 mg/kg/injection, schedule: Q01DX009 (ip), vehicle: saline with Tween-80
[6] = dose: 100.0 mg/kg/injection, schedule: Q01DX009 (ip), vehicle: saline with Tween-80
[7] = dose: 6.25 mg/kg/injection, schedule: Q01DX009 (ip), vehicle: saline with Tween-80
[8] = dose: 3.12 mg/kg/injection, schedule: Q01DX009 (ip), vehicle: Klucel (hydroxypropylcellulose) (HPC)
[9] = dose: 6.25 mg/kg/injection, schedule: Q01DX009 (ip), vehicle: Klucel (hydroxypropylcellulose) (HPC)
[10] = dose: 12.5 mg/kg/injection, schedule: Q01DX009 (ip), vehicle: Klucel (hydroxypropylcellulose) (HPC)
[11] = dose: 25.0 mg/kg/injection, schedule: Q01DX009 (ip), vehicle: Klucel (hydroxypropylcellulose) (HPC)
[12] = dose: 50.0 mg/kg/injection, schedule: Q01DX009 (ip), vehicle: Klucel (hydroxypropylcellulose) (HPC)
[13] = dose: 6.25 mg/kg/injection, schedule: Q01DX009 (ip), vehicle: saline
[14] = dose: 12.5 mg/kg/injection, schedule: Q01DX009 (ip), vehicle: saline
[15] = dose: 25.0 mg/kg/injection, schedule: Q01DX009 (ip), vehicle: saline
[16] = dose: 200.0 mg/kg/injection, schedule: Q01DX009 (ip), vehicle: saline with Tween-80
[17] = dose: 100.0 mg/kg/injection, schedule: Q04DX003 (ip), vehicle: Klucel (hydroxypropylcellulose) (HPC)
[18] = dose: 200.0 mg/kg/injection, schedule: Q04DX003 (ip), vehicle: Klucel (hydroxypropylcellulose) (HPC)
[19] = dose: 400.0 mg/kg/injection, schedule: Q04DX003 (ip), vehicle: Klucel (hydroxypropylcellulose) (HPC)
[20] = dose: 100.0 mg/kg/injection, schedule: Q01DX009 (ip), vehicle: Klucel (hydroxypropylcellulose) (HPC)
[21] = dose: 200.0 mg/kg/injection, schedule: Q01DX009 (ip), vehicle: Klucel (hydroxypropylcellulose) (HPC)
[22] = dose: 400.0 mg/kg/injection, schedule: Q01DX009 (ip), vehicle: Klucel (hydroxypropylcellulose) (HPC)
[23] = dose: 50.0 mg/kg/injection, schedule: Q04DX003 (ip), vehicle: Klucel (hydroxypropylcellulose) (HPC)
[24] = dose: 400.0 mg/kg/injection, schedule: Q01DX009 (ip), vehicle: saline

For `O=C(NO)c1ccccc1`, the T/C (dose: 12.5 mg/kg/injection, schedule: Q01DX009 (ip), vehicle: suspension in saline) was 94 % of control, the T/C (dose: 25.0 mg/kg/injection, schedule: Q01DX009 (ip), vehicle: suspension in saline) was 95 % of control and the T/C [1] was 97 % of control. For the same molecule, the T/C (dose: 50.0 mg/kg/injection, schedule: Q01DX009 (ip), vehicle: suspension in saline) was 92 % of control, the T/C (dose: 50.0 mg/kg/injection, schedule: Q04DX003 (ip), vehicle: saline with Tween-80) was 107 % of control and the T/C [2] was 97 % of control. The T/C (dose: 100.0 mg/kg/injection, schedule: Q01DX009 (ip), vehicle: suspension in saline) was 92 % of control, the T/C (dose: 100.0 mg/kg/injection, schedule: Q04DX003 (ip), vehicle: saline with Tween-80) was 111 % of control and the T/C (dose: 178.0 mg/kg/injection, schedule: Q04DX003 (ip), vehicle: saline with Tween-80) was 102 % of control. The T/C [3] was 107 % of control, the T/C (dose: 200.0 mg/kg/injection, schedule: Q04DX003 (ip), vehicle: saline with Tween-80) was 108 % of control and the T/C (dose: 400.0 mg/kg/injection, schedule: Q04DX003 (ip), vehicle: saline with Tween-80) was 100 % of control. For the same molecule, the T/C (dose: 600.0 mg/kg/injection, schedule: Q04DX003 (ip), vehicle: saline with Tween-80) was 100 % of control.
With `C[n+]1cccc(NC(=O)c2ccc(NC(=O)C34CCC(C(=O)Nc5ccc(C(=O)Nc6ccc[n+](C)c6)cc5)(CC3)CC4)cc2)c1` the T/C (dose: 10.0 mg/kg/injection, schedule: Q01DX009 (ip), vehicle: saline with Tween-80) was 154 % of control.
With `NS(=O)(=O)OCCCCCCCOS(N)(=O)=O` the T/C [4] was 150 % of control and the T/C [5] was 181 % of control.
For `COc1cccc2c1CCC1=C2CC=C2CC3(CCC21C)OCCO3` (configuration not stated), the T/C (dose: 100.0 mg/kg/injection, schedule: Q04DX003 (sc), vehicle: steriod suspending solution) was 104 % of control, the T/C (dose: 200.0 mg/kg/injection, schedule: Q04DX003 (sc), vehicle: steriod suspending solution) was 86 % of control and the T/C (dose: 400.0 mg/kg/injection, schedule: Q04DX003 (sc), vehicle: steriod suspending solution) was 97 % of control.
For `CCC(C)C(C(=O)OCCN(C)C)c1ccccc1` (configuration not stated), the T/C [4] was 100 % of control, the T/C [5] was 112 % of control and the T/C [6] was 99 % of control.
With `NNc1n[nH]c(=S)n1N` the T/C (dose: 0.78 mg/kg/injection, schedule: Q01DX009 (ip), vehicle: saline with Tween-80) was 88 % of control, the T/C (dose: 1.56 mg/kg/injection, schedule: Q01DX009 (ip), vehicle: saline with Tween-80) was 93 % of control and the T/C (dose: 3.13 mg/kg/injection, schedule: Q01DX009 (ip), vehicle: saline with Tween-80) was 90 % of control. The T/C [7] was 86 % of control.
In the case of `O=C1c2cc(Br)cc(Br)c2NCCCC1(Br)Br`, the T/C (dose: 75.0 mg/kg/injection, schedule: Q04DX003 (ip), vehicle: Klucel (hydroxypropylcellulose) (HPC)) is reported as 102 % of control, the T/C (dose: 150.0 mg/kg/injection, schedule: Q04DX003 (ip), vehicle: Klucel (hydroxypropylcellulose) (HPC)) is reported as 95 % of control and the T/C (dose: 300.0 mg/kg/injection, schedule: Q04DX003 (ip), vehicle: Klucel (hydroxypropylcellulose) (HPC)) is reported as 96 % of control.
In the case of `Nc1ncc(CNc2ccc(C(=O)NC(CCC(=O)O)C(=O)O)cc2)c(N)n1` (configuration not stated), the T/C [8] is reported as 107 % of control, the T/C [9] is reported as 103 % of control and the T/C [10] is reported as 111 % of control. For the same molecule, the T/C [11] was 114 % of control and the T/C [12] was 108 % of control.
For `CC(C)CC(NC(=O)CNC(=O)/C=C/c1ccco1)C(N)=O` (configuration not stated), the T/C [7] was 105 % of control, the T/C [13] was 106 % of control and the T/C (dose: 12.5 mg/kg/injection, schedule: Q01DX009 (ip), vehicle: saline with Tween-80) was 105 % of control. For the same molecule, the T/C [14] was 100 % of control, the T/C [4] was 110 % of control and the T/C [15] was 95 % of control. For the same molecule, the T/C [5] was 100 % of control and 105 % of control, the T/C [1] was 97 % of control and the T/C [6] was 92 % of control. The T/C [16] was 98 % of control.
With `Cc1ccc(NC(=O)c2ccc(Cl)cc2)c(C)c1` the T/C (dose: 75.0 mg/kg/injection, schedule: Q01DX009 (ip), vehicle: Klucel (hydroxypropylcellulose) (HPC)) was 93 % of control, the T/C (dose: 150.0 mg/kg/injection, schedule: Q01DX009 (ip), vehicle: Klucel (hydroxypropylcellulose) (HPC)) was 91 % of control and the T/C (dose: 300.0 mg/kg/injection, schedule: Q01DX009 (ip), vehicle: Klucel (hydroxypropylcellulose) (HPC)) was 88 % of control.
With `COc1ccc(C(C)=O)cc1N` the T/C [17] was 100 % of control, the T/C [18] was 97 % of control and the T/C [19] was 95 % of control.
In the case of `O=C(Nc1ccccc1F)Nc1ccccc1Cl`, the T/C [11] is reported as 96 % of control, the T/C [12] is reported as 92 % of control and the T/C [20] is reported as 92 % of control. The T/C [21] was 95 % of control.
In the case of `Brc1cnc(OCc2ccccc2)nc1OCc1ccccc1`, the T/C [20] is reported as 118 % of control, the T/C [21] is reported as 110 % of control and the T/C [22] is reported as 107 % of control.
`CC(=O)SCCCCl` was tested, and the T/C [5] was 108 % of control, the T/C [6] was 112 % of control and the T/C [16] was 97 % of control.
With `CC1(C)C(C#N)C(=O)N=C(N)C1C(N)=O` (configuration not stated) the T/C (dose: 12.0 mg/kg/injection, schedule: Q04DX003 (ip), vehicle: Klucel (hydroxypropylcellulose) (HPC)) was 105 % of control, the T/C (dose: 25.0 mg/kg/injection, schedule: Q04DX003 (ip), vehicle: Klucel (hydroxypropylcellulose) (HPC)) was 107 % of control and the T/C [23] was 105 % of control. The T/C [17] was 86 % of control and 100 % of control and the T/C [18] was 91 % of control.
In the case of `CCN(CC)CCC1CCNCC1`, the T/C [13] is reported as 112 % of control, the T/C [14] is reported as 112 % of control and the T/C [15] is reported as 106 % of control.
For `CC(=O)Nc1ccc(OC(=O)Nc2ccccc2Cl)cc1`, the T/C [17] was 93 % of control, the T/C [18] was 113 % of control and the T/C [19] was 106 % of control.
`COc1ccc2c(c1OC)C13CCCCC1C(C2)[N+](C)(C)CC3` (configuration not stated) was tested, and the T/C (dose: 0.02 mg/kg/injection, schedule: Q01DX009 (ip), vehicle: Klucel (hydroxypropylcellulose) (HPC)) was 91 % of control, the T/C (dose: 0.04 mg/kg/injection, schedule: Q01DX009 (ip), vehicle: Klucel (hydroxypropylcellulose) (HPC)) was 89 % of control and the T/C (dose: 0.78 mg/kg/injection, schedule: Q01DX009 (ip), vehicle: Klucel (hydroxypropylcellulose) (HPC)) was 87 % of control. For the same molecule, the T/C [8] was 86 % of control.
With `S=C1SCN(Cc2ccccc2)CN1Cc1ccccc1` the T/C [11] was 102 % of control and 120 % of control, the T/C [12] was 102 % of control and 108 % of control and the T/C [20] was 90 % of control and 97 % of control and 105 % of control.
In the case of `C/C(CCC(=O)O)=N\NC(N)=O`, the T/C [6] is reported as 88 % of control, the T/C [16] is reported as 88 % of control and the T/C (dose: 400.0 mg/kg/injection, schedule: Q01DX009 (ip), vehicle: saline with Tween-80) is reported as 100 % of control.
With `O=C(O)CCC(=O)CCC(=O)c1ccccc1` the T/C [5] was 95 % of control, the T/C [6] was 100 % of control and the T/C [16] was 93 % of control.
`Nc1ccccc1SC1CC(=O)N(c2cccc3ccccc23)C1=O` (configuration not stated) was tested, and the T/C (dose: 1.56 mg/kg/injection, schedule: Q01DX009 (ip), vehicle: Klucel (hydroxypropylcellulose) (HPC)) was 98 % of control, the T/C [8] was 96 % of control and the T/C [9] was 88 % of control and 94 % of control. The T/C [10] was 86 % of control, the T/C [20] was 94 % of control and 96 % of control and the T/C [17] was 100 % of control. The T/C [21] was 92 % of control, the T/C [18] was 100 % of control and the T/C [22] was 92 % of control. The T/C [19] was 93 % of control.
`CC(O)CN1CC(C)OC(C)C1` (configuration not stated) was tested, and the T/C [2] was 97 % of control, the T/C [3] was 90 % of control and the T/C [24] was 97 % of control.
`BrC1(Br)CC1(c1ccccc1)c1ccccc1` was tested, and the T/C [23] was 111 % of control, the T/C [17] was 105 % of control and the T/C [18] was 102 % of control.
For `CCOC(CNC(=O)OCc1ccccc1)OCC`, the T/C [20] was 93 % of control, the T/C [21] was 93 % of control and the T/C [22] was 90 % of control.
For `C=CCNC(=O)NCC=C`, the T/C [15] was 114 % of control, the T/C [1] was 109 % of control and the T/C [2] was 95 % of control. For the same molecule, the T/C [3] was 100 % of control.
`SCc1ccccn1` was tested, and the T/C [2] was 112 % of control, the T/C [3] was 115 % of control and the T/C [24] was 105 % of control.
`O=[N+]([O-])O.[NH-]C1CCCCC1[NH-].[NH-]C1CCCCC1[NH-].[OH-].[OH-].[Pt+4].[Pt+4]` (configuration not stated) was tested, and the T/C (dose: 0.25 mg/kg/injection, schedule: Q01DX009 (ip), vehicle: water) was 110 % of control and 111 % of control and the T/C (dose: 0.5 mg/kg/injection, schedule: Q01DX009 (ip), vehicle: water) was 120 % of control and 124 % of control.
